In patent US20210353579A1, “HIGH PENETRATION COMPOSITIONS AND USES THEREOF” (Techfields Pharma Co., Ltd., priority 2006, published 2021):
In brackets after ≈: the same amount, converted by molar mass.

Experiments:
human skin tissue = details: pH 7.4; for In vitro penetration rate (apparent flux), parent compounds: human, 20 %
rats = test: Antipyretic activity, E. coli suspension as pyrogen; type: in vivo; details: in °C (unit assumed)
Experimental: Rats are administered with sterilized E. coli suspension as a pyrogen. Each group of rats are administered with a prodrug compounds or parent compounds at a dosage specified below. The prodrug compounds are administered either orally or transdermally. The parent compounds are administered orally.

mice = test: Analgesic activity, acetic acid writhing; type: in vivo
Experimental: The prodrug compounds are administered either transdermally or orally. The parent compounds are administered orally. The number of writhing that occurred when mice are administered the acetic acid solution are counted, and the rate of inhibition based on the control group which was not pretreated with any test compounds is calculated. […] The A group is the control group.

[1] = Plasma levels after transdermal administration to hairless mice; type: in vivo; details: for Peak plasma concentration of parent compound after prodrug compound / t, time to peak plasma level of parent compound after prodrug compound: mouse, in vivo; for t, time to peak plasma level after parent compound: parent compound administered (time when taken orally); for Peak plasma concentration after parent compound: parent compound administered, hairless mice
Experimental: Tested compounds (20% solution or suspension in 1 mL isopropanol) are administered transdermally to the skin of intact hairless mice. The plasma levels of the parent compounds are determined by HPLC.

[2] = Solubility in water / aqueous solubility of HPPs and parent drugs; details: for solubility: water; for Solubility in water: product as prepared in Example 1
[3] = 100 mg/kg transdermally, 30 min before acetic acid
[4] = 50 mg/kg transdermally, 60 minutes before acetic acid

Row | Compound | In vitro penetration rate (apparent flux), prodrug compounds (human skin tissue) [μg/cm^2/h] | body temperature, t = 0 min (rats; 100 mg/kg transdermally) | body temperature, t = 90 min (rats; 100 mg/kg transdermally) | body temperature, t = 180 min (rats; 100 mg/kg transdermally) | body temperature, t = 270 min (rats; 100 mg/kg transdermally) | % (rate of writhing inhibition) (mice; [3]) [%] | No. of Writhing (mice; [3]) | Peak plasma concentration of parent compound after prodrug compound [1] [mg/L] | t, time to peak plasma level of parent compound after prodrug compound [1] [min] | solubility [2] [µg/mL] | further results
1 | CC(=O)O.CCN(CC)CCOC(=O)C(C)c1ccc(N2CC=CC2)c(Cl)c1 (stereo not drawn) [diethylaminoethyl 3-chloro-4-(2,5-dihydro-1H-pyrrol-1-yl)-α-methyl benzeneacetate.AcOH] | 3500 | 37.27 ± 0.06 | 36.68 ± 0.05 | 36.62 ± 0.08 | 36.58 ± 0.07 | 60 | 14.0 | 2000 | 50 | – | –
2 | CC(=O)O.CCN(CC)CCOC(=O)C(C)c1ccc(C(=O)c2ccccc2)s1 (stereo not drawn) [diethylaminoethyl 5-benzoyl-α-methyl-2-thiopheneacetate.AcOH] | 4200 | 37.26 ± 0.06 | 36.65 ± 0.06 | 36.58 ± 0.08 | 36.36 ± 0.07 | 62 | 13.2 | 2000 | 50 | – | –
3 | CC(=O)O.CCN(CC)CCOC(=O)CCc1nc(-c2ccccc2)c(-c2ccccc2)o1 [diethylaminoethyl 4,5-Diphenyl-2-oxazole propionate.AcOH] | 4000 | 37.24 ± 0.07 | 36.82 ± 0.06 | 36.70 ± 0.05 | 36.67 ± 0.08 | 55 | 15.7 | 2000 | 50 | – | –
4 | CC(=O)O.CCN(CC)CCOC(=O)CCC(=O)c1ccc(-c2ccccc2)cc1 [diethylaminoethyl 3-(4-biphenylylcarbonyl)propionate.AcOH] | 3600 | 37.23 ± 0.06 | 36.81 ± 0.05 | 36.65 ± 0.08 | 36.61 ± 0.07 | 59 | 14.2 | 2000 | 50 | – | –
5 | CC(=O)O.CCN(CC)CCOC(=O)C(C)c1ccc(CC2CCCC2=O)cc1 (stereo not shown) [diethylaminoethyl 2-[4-(2-oxocyclopentyl-methyl)phenyl]propionate.AcOH] | 3400 | 37.25 ± 0.06 | 36.71 ± 0.05 | 36.65 ± 0.08 | 36.64 ± 0.07 | 55 | 15.7 | 2000 | 50 | – | –
6 | Cc1ccc(Cl)c(Nc2ccccc2C(=O)O)c1Cl [Meclofenamic acid, meclofenamic acid, reference compound] | – | – | – | – | – | – | – | – | – | < 100 | In vitro penetration rate (apparent flux), parent compounds (human skin tissue): 10 μg/cm^2/h; t, time to peak plasma level after parent compound [1]: 2 to 4 h; Peak plasma concentration after parent compound [1]: 0.1 mg/L
7 | O=C(c1ccccc1)c1ccc2n1CCC2C(=O)O (stereo not shown) [Ketorolac, ketorolac, reference compound] | – | – | – | – | – | – | – | – | – | 100 (≈ 0.392 mM) | In vitro penetration rate (apparent flux), parent compounds (human skin tissue): 30 μg/cm^2/h; t, time to peak plasma level after parent compound [1]: 2 to 4 h; Peak plasma concentration after parent compound [1]: 10 mg/L
8 | CC(=O)O.CCN(CC)CCNC(=O)CCc1nc(-c2ccccc2)c(-c2ccccc2)o1 [N-diethylaminoethyl 4,5-Diphenyl-2-oxazole propionamide.AcOH] | – | – | – | – | – | – | – | – | – | – | Solubility in water [2]: 400000 µg/mL
9 | CC(C(=O)O)c1ccc2c(c1)CC(=O)c1ccccc1S2 (stereo not shown) [Zaltoprofen, zaltoprofen, reference compound] | – | – | – | – | – | – | – | – | – | 100 (≈ 0.335 mM) | In vitro penetration rate (apparent flux), parent compounds (human skin tissue): 30 μg/cm^2/h; t, time to peak plasma level after parent compound [1]: 2 to 4 h; Peak plasma concentration after parent compound [1]: 10 mg/L
10 | Cc1c(Nc2ncccc2C(=O)O)cccc1C(F)(F)F [Flunixin, flunixin, reference compound] | – | – | – | – | – | – | – | – | – | < 100 | In vitro penetration rate (apparent flux), parent compounds (human skin tissue): 10 μg/cm^2/h; t, time to peak plasma level after parent compound [1]: 2 to 4 h; Peak plasma concentration after parent compound [1]: 0.1 mg/L
11 | CC(=O)O.CCN(CC)CCOC(=O)C1CCn2c(C(=O)c3ccccc3)ccc21 (stereo not shown) [diethylaminoethyl 5-benzoyl-2,3-dihydro-1H-pyrrolizine-1-carboxylate.AcOH] | 3800 | 37.22 ± 0.06 | 36.65 ± 0.06 | 36.58 ± 0.08 | 36.51 ± 0.07 | 54 | 16.1 | 2000 | 50 | – | –
12 | CCN(CC)CCOC(=O)c1ccccc1Nc1cccc(Cl)c1C [diethylaminoethyl 2-[(3-chloro-2-methylphenyl)amino]benzoate] | – | – | – | – | – | – | – | – | – | > 400000 | –
13 | CC(=O)O.CCN(CC)CCOC(=O)CC(O)c1ccc(-c2ccc(Cl)cc2)o1 (stereo not drawn) [diethylaminoethyl 5-(4-chlorophenyl)-beta-hydroxy-2-furanpropionate.AcOH] | 4100 | 37.29 ± 0.07 | 36.82 ± 0.06 | 36.60 ± 0.05 | 36.67 ± 0.08 | 55 | 15.6 | 2000 | 50 | – | –
14 | O=C(O)CCC(=O)c1ccc(-c2ccccc2)cc1 [Fenbufen, fenbufen, reference compound] | – | – | – | – | – | – | – | – | – | – | In vitro penetration rate (apparent flux), parent compounds (human skin tissue): 40 μg/cm^2/h; t, time to peak plasma level after parent compound [1]: 2 to 4 h; Peak plasma concentration after parent compound [1]: 10 mg/L
15 | CC(C)Cc1ccc(CC(=O)O)cc1 [Ibufenac] | – | – | – | – | – | – | – | – | – | 100 (≈ 0.52 mM) | –
16 | CC(=O)O.CN(C)CCSC(=O)Cc1ccccc1Nc1c(Cl)cccc1Cl [S-dimethylaminoethyl 2[(2,6-dichlorophenyl)amino] benzene acetate.AcOH] | – | – | – | – | – | – | – | – | – | – | Solubility in water [2]: 410000 µg/mL
17 | O=C(O)COc1nn(Cc2ccccc2)c2ccccc12 [Bendazac, bendazac, reference compound] | – | – | – | – | – | – | – | – | – | 100 (≈ 0.354 mM) | t, time to peak plasma level after parent compound [1]: 1 to 2 h; Peak plasma concentration after parent compound [1]: 0.1 mg/L
18 | Cc1c(Cl)cccc1Nc1ccccc1C(=O)O [tolfenamic acid] | – | – | – | – | – | – | – | – | – | < 100 | –
19 | CN1C(C(=O)Nc2ccccn2)=C(O)c2sccc2S1(=O)=O [Tenoxicam, tenoxicam, reference compound] | – | – | – | – | – | – | – | – | – | – | In vitro penetration rate (apparent flux), parent compounds (human skin tissue): <1 μg/cm^2/h; t, time to peak plasma level after parent compound [1]: 2 to 4 h; Peak plasma concentration after parent compound [1]: 0.1 mg/L
20 | CC(=O)O.CCN(CC)CCOC(=O)C(C)c1ccc(-c2ccccc2)c(F)c1 (stereo not shown) [diethylaminoethyl 2-(2-fluoro-4-biphenylyl)propionate.AcOH] | 3500 | 37.29 ± 0.07 | 36.82 ± 0.06 | 36.70 ± 0.05 | 36.67 ± 0.08 | 55 | 15.6 | 2000 | 50 | – | –
21 | CN(C)CCCC(=O)OC1=C(C(=O)Nc2ccccn2)N(C)S(=O)(=O)c2ccsc21.Cl [4-N,N-dimethylaminobutyryloxy-2-methyl-N-2-pyridinyl-2H-thieno[2,3-e]-1,2-thiazine-3-carboxamide 1,1-dioxide.HCl] | 1800 | – | – | – | – | – | – | 20 | – | – | body temperature, t = 0 min (rats; 25 mg/kg transdermally): 37.54 ± 0.06; body temperature, t = 90 min (rats; 25 mg/kg transdermally): 36.61 ± 0.06; body temperature, t = 180 min (rats; 25 mg/kg transdermally): 36.58 ± 0.08; body temperature, t = 270 min (rats; 25 mg/kg transdermally): 36.55 ± 0.05; % (rate of writhing inhibition) (mice; [4]): 53%; No. of Writhing (mice; [4]): 16.9
22 | 8-chloro-(4-N,N-dimethylaminobutyryloxy-pyridine-2-ylamino-methylidene)-3-methyl-2,2-dioxo-2λ^6,7-dithia-3-azabicyclo[4,3,0]nona-8,10-dien-5-one.HCl | – | – | – | – | – | – | – | – | – | – | body temperature, t = 0 min (rats; 25 mg/kg transdermally): 37.53 ± 0.05; body temperature, t = 90 min (rats; 25 mg/kg transdermally): 36.57 ± 0.05; body temperature, t = 180 min (rats; 25 mg/kg transdermally): 36.52 ± 0.07; body temperature, t = 270 min (rats; 25 mg/kg transdermally): 36.51 ± 0.06; % (rate of writhing inhibition) (mice; [4]): 50%; No. of Writhing (mice; [4]): 17.5
23 | CC(=O)O.CCN(CC)CCOC(=O)Cc1ccc(CC(C)C)cc1 [diethylaminoethyl p-isobutylphenylacetate.AcOH] | – | – | – | – | – | – | – | – | – | – | Solubility of HPP ([2]; medium not given): >250000 µg/mL
24 | CC(=O)O.CN(C)CCNC(=O)Cc1ccccc1Nc1c(Cl)cccc1Cl [N-dimethylaminoethyl 2[(2,6-dichlorophenyl)amino] benzene acetamide.AcOH] | – | – | – | – | – | – | – | – | – | – | Solubility in water [2]: 450000 µg/mL
